From patent US20080176339A1, “NEUTRAL LABELING REACTANTS AND CONJUGATES DERIVED THEREOF” (WALLAC OY, priority 2006, published 2008)

Tests used:
[1] = in vivo; cited from earlier work
[2] = Stabilities of chelates in DELFIA Enhancement Solution and DELFIA Inducer (dissociation of europium followed by time-resolved fluorometer); type: physicochemical; details: RT (25° C.)
Protocol: The chelates (ca 1 mg) were dissolved either in Inducer or Enhanchement Solution. The dissociation of the europium at 25° C. were followed using a time-resolved fluorometer. The results are shown below

[3] = test system: antiserum; test: Performance of thyroxine tracers in DELFIA based T4-assay compared to AutoDELFIA Neonatal T4 kit; details: up to one week in instrument-like conditions
Protocol: The assay concentrations of the antiserum were optimized for each tracer individually, and the analytical sensitivities of the optimized standard curves were defined. The correlation between the methods were studied with a small sample panel. The on-board stability was tested up to one week in instrument-like conditions. Sensitivity to the interference of EDTA-containing samples was also studied.

O=C([O-])CN(CCN(CC(=O)[O-])CC(=O)O)CCN(CC(=O)[O-])CC(=O)O.[Gd+3] [Gd-DTPA]
Crossing of intact blood-brain barrier [1]: does not cross an intact blood-brain barrier

Europium Chelate of 2-(4-aminobenzyl)-1,7-bis(aminocarbonylmethyl)-1,4,7-tris(carboxymethyl)-1,4,7-triazaheptane [Compound 10]
Approximate time needed for complete dissociation, Enhancer ([2]; DELFIA Enhancement Solution): 30 min
Approximate time needed for complete dissociation, Inducer ([2]; DELFIA Inducer): <5 min

NC(=O)CN(CCN(CC(=O)O)CC(Cc1ccc(NC(=S)NCCCCCC(=O)NC(Cc2cc(I)c(Oc3cc(I)c(O)c(I)c3)c(I)c2)C(=O)O)cc1)N(CC(N)=O)CC(=O)O)CC(=O)O (centres unmarked) [Compound 13]
On board stability [3]: Better

O=C(O)CN(CCN(CC(=O)O)CC(Cc1ccc(NC(=S)NCCCCCC(=O)NC(Cc2cc(I)c(Oc3cc(I)c(O)c(I)c3)c(I)c2)C(=O)O)cc1)N(CC(=O)O)CC(=O)O)CC(=O)O (centres unmarked) [Compound T4-DTPA]
On board stability [3]: Better
